Results published in patent US20080081781A1, “Methods and compositions for the treatment of metabolic syndrome” (priority 2004, published 2008).

Assays:
[1] = test system: hyperlipidemia Chinese hamster; assay: Lipid lowering effects of berberine in hyperlipidemia Chinese hamster; assay type: in vivo; details: for LDL reduced by: after the 10 day treatment; for LDL Protein / Triglycerides / Cholesterol: serum, ten days; for LDL Protein: saline control 2.8 ± 0.9; for Triglycerides: saline control 3.6 ± 0.4; for Cholesterol: saline control 6.4 ± 1.0
Method: Two weeks prior to treatment, female Chinese hamsters purchased from the National Institute of Vaccine and Serum research (Beijing, China) were switched to a high fat and cholesterol diet (10% lard, 10% egg yolk powder and 1% cholesterol). After two weeks, groups of 14 hamsters were given either 10 mg/kg/day of berberine through peritoneal injection, 20 mg/kg/day of berberine through peritoneal injection, 50 mg/kg/day, 100 mg/kg/day of berberine orally or saline for ten days. Serum cholesterol, triglyceride and LDL levels were measured after 4 h fasting before, during and after the course of the treatment. Four hours after the course of the treatment, the animals were sacrificed and their livers removed for analysis.

[2] = test system: LDLR mRNA 3'UTR; assay: Luc-LDLR 3'UTR chimeric transcripts in transfected HepG2 cells; assay type: cell-based, human; details: transfected HepG2, berberine eight hours
Description: Three consecutive fragments of LDLR 3 ′UTR were inserted into a cytomegalovirus promoter driven Luc plasmid (pLuc) at the 3′ end of the Luc coding sequence before the SV40 polyadenylation signal. The wild-type Luc reporter plasmid pLuc was constructed by insertion of the Luc cDNA into the HindIII and Xba sites of pcDNA3.1/Zeo(+). Addition of the LDLR 3/UTR was accomplished by PCR amplifying different regions of the 2.5 kb 3′UTR of LDLR mRNA using XbaI-tailed primers and pLDLR3 as the template. The wild type pLuc and the chimeric plasmids pLuc-UTR-2, UTR-3 and UTR-4 were transfected into HepG2 cells (FIG. 11). Cells seeded in culture dishes were transiently transfected with the chimeric plasmids. Twenty-four hours after transfection, cells were trypsinized and reseeded equally into two dishes for each plasmid transfection. After overnight incubation, one dish was treated with dimethylsulfoxide as the solvent control and another was treated with berberine for eight hours. […]
To create ARE deletion constructs, an Apa site at nt 3,384 was generated for deleting ARE3, and an Apa1 site at nt 3,334 for deleting ARE2 by site-directed mutagenesis using pLuc/UTR-2 as the template. […] The effects of berberine on the chimeric Luc transcripts were determined by measuring Luc mRNA using a quantitative real-time RT-PCR assay. […]

[3] = test system: InsR mRNA; assay: InsR mRNA expression in HepG2 cells (real time RT-PCR, slot blot); assay type: cell-based, human; details: HepG2, 2.5 μg/ml for 8 hours
Method: Cells from the human hepatoma cell line HepG2 were incubated with 0, 1, 2.5, 5, 10 or 15 μg/ml of berberine respectively for eight hours. Total cellular RNA was isolated using the Ultraspec RNA lysis solution (Biotecxs Laboratory, Houston, Tex.) following the vender's protocols. […] of the RNA sample was transferred to nitrocellulose membrane via a slot-blot apparatus (Schleicher & Schuell, Keene, N.H.). The blots were fixed by baking at 80° C. for 2 h, followed by hybridization to a 0.89-kb long, 32P-labelled human InsR cDNA probe. The same membranes were then stripped and re-hybridized to a human ACTB probe as internal control. Quantitative real time RT-PCR assays were also done. For the RT-PCR assay, total cellular RNA was reverse-transcribed into cDNA using the Reverse Transcription System (Promega, Madison, Wis.). Quantitative real-time PCR were performed with these cDNA using the Applied Biosystems 7500 Real-Time PCR System and TaqMan® Universal PCR Master Mix (Applied Biosystems, Foster City, Calif.). […] 2.5 μl of cDNA sample, 12.5 μl of Universal PCR Master Mix, and 1.25 μl of TaqMan® Gene Expression Assay reagent were mixed in a 25 μl reaction system, and the comparative CT method was used in relative gene quantification using the TaqMan® SDS analysis software. […]

[4] = test system: rats; details: rat, in vivo
[5] = 10 mg/kg/day peritoneal injection
[6] = 20 mg/kg/day peritoneal injection

`COc1ccc2cc3[n+](cc2c1OC)CCc1cc2c(cc1-3)OCO2` [berberine] was tested, and the “LDL reduced by” value ([1]; 50 mg/kg/day) was 26%, the “LDL reduced by” value ([1]; 100 mg/kg/day) was 42% and the “LDL Protein” value [1, 5] was 1.6 ± 0.3. For the same compound, the Triglycerides [1, 5] was 2.6 ± 0.3, the Cholesterol [1, 5] was 4.1 ± 0.7 and the “LDL Protein” value [1, 6] was 0.9 ± 0.1. For the same compound, the Triglycerides [1, 6] was 1.7 ± 0.5, the Cholesterol [1, 6] was 3.2 ± 0.5 and the “LDL Protein” value ([1]; 50 mg/kg/day (orally)) was 2.07 ± 0.9. For the same compound, the Cholesterol ([1]; 50 mg/kg/day (orally)) was 3.5 ± 0.5, the “LDL Protein” value ([1]; 100 mg/kg/day oral) was 1.2 ± 0.2 and the Triglycerides ([1]; 100 mg/kg/day oral) was 1.9 ± 0.4. The Cholesterol ([1]; 100 mg/kg/day oral) was 3.8 ± 0.7, the “expressions of LucUTR-3 and Luc-UTR-4 or the wild type” value [2] was “without affecting” and the “increase of level of Luc-UTR-2 mRNA” value [2] was 2.5 fold. The “increase of InsR mRNA” value [3] was 40% and the birth defects [4] was “No birth defects were evident”.
